{
  "source": "paper PMC8364686",
  "about": "“Safety, tolerability, pharmacokinetics and pharmacodynamics of single oral doses of BI 187004, an inhibitor of 11beta-hydroxysteroid dehydrogenase-1, in healthy male volunteers with overweight or obesity” (Clinical Diabetes and Endocrinology, 2021)",
  "system": "hypothalamus–pituitary–adrenal axis hormones",
  "test": "Hormones of the HPA axis: difference from baseline",
  "type": "in vivo, human",
  "method": "Safety and tolerability of BI 187004 were assessed in a descriptive way using the following investigations: recording of adverse events, clinical laboratory parameters (haematology, coagulation, enzymes, substrates, electrolytes, hormones, and urinalysis), vital signs (blood pressure, puls rate), 12-lead ECG (electrocardiogram) with special attention to QTc prolongation, and physical examination (occurrence of findings).",
  "data": [
    {"smiles": "N#Cc1ccc2c(c1)[C@H]1CCCN(C(=O)c3ccc4[nH]cnc4c3)[C@H]1C2", "note": "[BI 187004]", "values": [
      {"measurement": "Cortisol mean difference from baseline", "setting": "10 mg single oral dose, 96:00", "result": -128.8, "unit": "nmol/L"},
      {"measurement": "DHEA-s mean difference from baseline", "setting": "10 mg single oral dose, 96:00", "result": 1.9, "unit": "µmol/L"},
      {"measurement": "SHBG mean difference from baseline", "setting": "10 mg single oral dose, 96:00", "result": 0.2, "unit": "nmol/L"},
      {"measurement": "Total Testosterone mean difference from baseline", "setting": "10 mg single oral dose, 96:00", "result": -2.0, "unit": "nmol/L"},
      {"measurement": "ACTH mean difference from baseline", "setting": "20 mg single oral dose, 24:00", "result": 1.53, "unit": "pmol/L"},
      {"measurement": "Androstenedione mean difference from baseline", "setting": "20 mg single oral dose, 24:00", "result": 3.7, "unit": "nmol/L"},
      {"measurement": "Cortisol mean difference from baseline", "setting": "20 mg single oral dose, 24:00", "result": 18.4, "unit": "nmol/L"},
      {"measurement": "DHEA-s mean difference from baseline", "setting": "20 mg single oral dose, 24:00", "result": 2.2, "unit": "µmol/L"},
      {"measurement": "SHBG mean difference from baseline", "setting": "20 mg single oral dose, 24:00", "result": 2.9, "unit": "nmol/L"},
      {"measurement": "Total Testosterone mean difference from baseline", "setting": "20 mg single oral dose, 24:00", "result": -1.3, "unit": "nmol/L"},
      {"measurement": "ACTH mean difference from baseline", "setting": "20 mg single oral dose, 96:00", "result": -0.58, "unit": "pmol/L"},
      {"measurement": "Androstenedione mean difference from baseline", "setting": "20 mg single oral dose, 96:00", "result": 3.8, "unit": "nmol/L"},
      {"measurement": "Cortisol mean difference from baseline", "setting": "20 mg single oral dose, 96:00", "result": -34.1, "unit": "nmol/L"},
      {"measurement": "DHEA-s mean difference from baseline", "setting": "20 mg single oral dose, 96:00", "result": 2.1, "unit": "µmol/L"},
      {"measurement": "SHBG mean difference from baseline", "setting": "20 mg single oral dose, 96:00", "result": 1.3, "unit": "nmol/L"},
      {"measurement": "Total Testosterone mean difference from baseline", "setting": "20 mg single oral dose, 96:00", "result": -1.0, "unit": "nmol/L"},
      {"measurement": "ACTH mean difference from baseline", "setting": "40 mg single oral dose, 24:00", "result": 1.44, "unit": "pmol/L"},
      {"measurement": "Androstenedione mean difference from baseline", "setting": "40 mg single oral dose, 24:00", "result": 3.7, "unit": "nmol/L"},
      {"measurement": "Cortisol mean difference from baseline", "setting": "40 mg single oral dose, 24:00", "result": -48.8, "unit": "nmol/L"},
      {"measurement": "DHEA-s mean difference from baseline", "setting": "40 mg single oral dose, 24:00", "result": 1.7, "unit": "µmol/L"},
      {"measurement": "SHBG mean difference from baseline", "setting": "40 mg single oral dose, 24:00", "result": 0.6, "unit": "nmol/L"},
      {"measurement": "Total Testosterone mean difference from baseline", "setting": "40 mg single oral dose, 24:00", "result": -0.5, "unit": "nmol/L"},
      {"measurement": "ACTH mean difference from baseline", "setting": "40 mg single oral dose, 96:00", "result": -0.01, "unit": "pmol/L"},
      {"measurement": "Androstenedione mean difference from baseline", "setting": "40 mg single oral dose, 96:00", "result": 0.1, "unit": "nmol/L"},
      {"measurement": "Cortisol mean difference from baseline", "setting": "40 mg single oral dose, 96:00", "result": -75.5, "unit": "nmol/L"},
      {"measurement": "DHEA-s mean difference from baseline", "setting": "40 mg single oral dose, 96:00", "result": 2.3, "unit": "µmol/L"},
      {"measurement": "SHBG mean difference from baseline", "setting": "40 mg single oral dose, 96:00", "result": -1.8, "unit": "nmol/L"},
      {"measurement": "Total Testosterone mean difference from baseline", "setting": "40 mg single oral dose, 96:00", "result": -0.8, "unit": "nmol/L"},
      {"measurement": "ACTH mean difference from baseline", "setting": "80 mg single oral dose, 24:00", "result": 4.69, "unit": "pmol/L"},
      {"measurement": "Androstenedione mean difference from baseline", "setting": "80 mg single oral dose, 24:00", "result": 8.1, "unit": "nmol/L"},
      {"measurement": "Cortisol mean difference from baseline", "setting": "80 mg single oral dose, 24:00", "result": 102.6, "unit": "nmol/L"},
      {"measurement": "DHEA-s mean difference from baseline", "setting": "80 mg single oral dose, 24:00", "result": 2.6, "unit": "µmol/L"},
      {"measurement": "SHBG mean difference from baseline", "setting": "80 mg single oral dose, 24:00", "result": 2.1, "unit": "nmol/L"},
      {"measurement": "Total Testosterone mean difference from baseline", "setting": "80 mg single oral dose, 24:00", "result": 0.8, "unit": "nmol/L"},
      {"measurement": "ACTH mean difference from baseline", "setting": "80 mg single oral dose, 96:00", "result": 1.36, "unit": "pmol/L"},
      {"measurement": "Androstenedione mean difference from baseline", "setting": "80 mg single oral dose, 96:00", "result": 0.5, "unit": "nmol/L"},
      {"measurement": "Cortisol mean difference from baseline", "setting": "80 mg single oral dose, 96:00", "result": -64.4, "unit": "nmol/L"},
      {"measurement": "DHEA-s mean difference from baseline", "setting": "80 mg single oral dose, 96:00", "result": 2.4, "unit": "µmol/L"},
      {"measurement": "SHBG mean difference from baseline", "setting": "80 mg single oral dose, 96:00", "result": -1.3, "unit": "nmol/L"},
      {"measurement": "Total Testosterone mean difference from baseline", "setting": "80 mg single oral dose, 96:00", "result": 0.6, "unit": "nmol/L"},
      {"measurement": "ACTH mean difference from baseline", "setting": "160 mg single oral dose, 24:00", "result": 1.34, "unit": "pmol/L"},
      {"measurement": "Androstenedione mean difference from baseline", "setting": "160 mg single oral dose, 24:00", "result": 2.6, "unit": "nmol/L"},
      {"measurement": "Cortisol mean difference from baseline", "setting": "160 mg single oral dose, 24:00", "result": -49.2, "unit": "nmol/L"},
      {"measurement": "DHEA-s mean difference from baseline", "setting": "160 mg single oral dose, 24:00", "result": 1.6, "unit": "µmol/L"},
      {"measurement": "SHBG mean difference from baseline", "setting": "160 mg single oral dose, 24:00", "result": 1.9, "unit": "nmol/L"},
      {"measurement": "Total Testosterone mean difference from baseline", "setting": "160 mg single oral dose, 24:00", "result": 1.0, "unit": "nmol/L"},
      {"measurement": "ACTH mean difference from baseline", "setting": "160 mg single oral dose, 96:00", "result": 0.05, "unit": "pmol/L"},
      {"measurement": "Androstenedione mean difference from baseline", "setting": "160 mg single oral dose, 96:00", "result": 1.5, "unit": "nmol/L"},
      {"measurement": "Cortisol mean difference from baseline", "setting": "160 mg single oral dose, 96:00", "result": -69.9, "unit": "nmol/L"},
      {"measurement": "DHEA-s mean difference from baseline", "setting": "160 mg single oral dose, 96:00", "result": 2.2, "unit": "µmol/L"},
      {"measurement": "SHBG mean difference from baseline", "setting": "160 mg single oral dose, 96:00", "result": -0.8, "unit": "nmol/L"},
      {"measurement": "Total Testosterone mean difference from baseline", "setting": "160 mg single oral dose, 96:00", "result": 2.4, "unit": "nmol/L"},
      {"measurement": "ACTH mean difference from baseline", "setting": "240 mg single oral dose, 24:00", "result": 0.87, "unit": "pmol/L"},
      {"measurement": "Androstenedione mean difference from baseline", "setting": "240 mg single oral dose, 24:00", "result": 5.0, "unit": "nmol/L"},
      {"measurement": "Cortisol mean difference from baseline", "setting": "240 mg single oral dose, 24:00", "result": -7.3, "unit": "nmol/L"},
      {"measurement": "DHEA-s mean difference from baseline", "setting": "240 mg single oral dose, 24:00", "result": 1.6, "unit": "µmol/L"},
      {"measurement": "SHBG mean difference from baseline", "setting": "240 mg single oral dose, 24:00", "result": 2.3, "unit": "nmol/L"},
      {"measurement": "Total Testosterone mean difference from baseline", "setting": "240 mg single oral dose, 24:00", "result": -2.8, "unit": "nmol/L"},
      {"measurement": "ACTH mean difference from baseline", "setting": "240 mg single oral dose, 96:00", "result": -0.27, "unit": "pmol/L"},
      {"measurement": "Androstenedione mean difference from baseline", "setting": "240 mg single oral dose, 96:00", "result": 2.7, "unit": "nmol/L"},
      {"measurement": "Cortisol mean difference from baseline", "setting": "240 mg single oral dose, 96:00", "result": -5.1, "unit": "nmol/L"},
      {"measurement": "DHEA-s mean difference from baseline", "setting": "240 mg single oral dose, 96:00", "result": 2.3, "unit": "µmol/L"},
      {"measurement": "SHBG mean difference from baseline", "setting": "240 mg single oral dose, 96:00", "result": 2.5, "unit": "nmol/L"},
      {"measurement": "Total Testosterone mean difference from baseline", "setting": "240 mg single oral dose, 96:00", "result": -2.4, "unit": "nmol/L"},
      {"measurement": "ACTH mean difference from baseline", "setting": "360 mg single oral dose, 24:00", "result": 1.30, "unit": "pmol/L"},
      {"measurement": "Androstenedione mean difference from baseline", "setting": "360 mg single oral dose, 24:00", "result": 3.2, "unit": "nmol/L"},
      {"measurement": "Cortisol mean difference from baseline", "setting": "360 mg single oral dose, 24:00", "result": -40.0, "unit": "nmol/L"},
      {"measurement": "DHEA-s mean difference from baseline", "setting": "360 mg single oral dose, 24:00", "result": 1.2, "unit": "µmol/L"},
      {"measurement": "SHBG mean difference from baseline", "setting": "360 mg single oral dose, 24:00", "result": 0.9, "unit": "nmol/L"},
      {"measurement": "Total Testosterone mean difference from baseline", "setting": "360 mg single oral dose, 24:00", "result": -0.3, "unit": "nmol/L"},
      {"measurement": "ACTH mean difference from baseline", "setting": "360 mg single oral dose, 96:00", "result": 0.38, "unit": "pmol/L"},
      {"measurement": "Androstenedione mean difference from baseline", "setting": "360 mg single oral dose, 96:00", "result": -0.3, "unit": "nmol/L"},
      {"measurement": "Cortisol mean difference from baseline", "setting": "360 mg single oral dose, 96:00", "result": -132.9, "unit": "nmol/L"},
      {"measurement": "DHEA-s mean difference from baseline", "setting": "360 mg single oral dose, 96:00", "result": 1.6, "unit": "µmol/L"},
      {"measurement": "SHBG mean difference from baseline", "setting": "360 mg single oral dose, 96:00", "result": -2.2, "unit": "nmol/L"},
      {"measurement": "Total Testosterone mean difference from baseline", "setting": "360 mg single oral dose, 96:00", "result": 0.7, "unit": "nmol/L"}
    ]}
  ]
}
